Source: patent US5710164A, “Diheterocyclic styryl nitriles” (American Home Products Corporation, priority 1995, dated 1998)
pIC50: −log10 of the molar value. Like-named read-outs stand apart in the source and are kept apart here.

Key:
[1] = tested on: porcine aortic smooth muscle cells; test: inhibition of smooth muscle cell proliferation (3H thymidine, serum or PDGF stimulated); assay type: cell-based; conditions: Sus scrofa, 24-36 h at 37° C.
Method: The ability of the compounds of the present invention to inhibit smooth muscle cell proliferation was established using isolated porcine aortic smooth muscle cells in a modification of the procedure of Castellot et al. J. Biol. Chem 257(19) 11256 (1982), as follows:
Fresh porcine aortas, scrupulously cleansed of fatty tissue, are rinsed in sterile phosphate-buffered saline with 2% antibiotic-antimycotic (100×) liquid (10,000 units of penicillin (base), 10,000 μg of streptomycin (base), and 25 μg of amphotericin B/mL utilizing penicillin G (sodium salt), streptomycin sulfate, and amphotericin B as Fungizone® in 0.85% saline, available from Gibco Laboratories, Grand Island Biological Co., Grand Island, N.Y.). The tissue is then digested in 10-15 mL of an enzyme solution containing collagenase type I, 165 U/mL; elastase type III, 15 U/mL; BSA, 2 mg/mL; and soybean trypsin inhibitor, 0.375 mg/mL, followed by incubation at 37° C. under 5% CO2 atmosphere for 10 to 15 minutes. After this treatment, the outer surface adventitia is removed by peeling with a forceps. The aorta is then longitudinally cut and laid open and the endothelial layer is removed by scraping.
The medial layer of cells is rinsed in the enzyme solution, and placed in a new 100 mm dish with 10 mL of enzyme solution. The medial layer of cells is minced using a fine pair of scissors and digested for 2-3 hours at 37° C. in 30 mL of fresh enzyme solution. After digestion, the medial tissue is homogenized using a sterile Pasteur pipette with a fire polished tip or an Eppendorf pipetter with a 200-1000 μL sterile pipette tip. The suspension is then centrifuged for 10 minutes at 8000 rpm and the pellet is suspended in 4-6 mL of fresh enzyme solution and plated onto 4-6 100 mm flasks with vented caps. The cells are then allowed to grow to confluence and split using 0.25% trypsin. The cells are evaluated for purity and overall quality using antibody to SMC actin.
The cells are assayed in early passage (generally passage 3-7) at sub-confluent conditions. Cultures are grown in 16 mm (24 well) multi-well culture dishes in media 199 supplemented with 10% fetal bovine serum and 2% antibiotic/antimycotic. At subconfluence, the cells are placed in a defined serum free, lymphocyte medium (AIM-V; Gibco) for 24-48 hours prior to initiating the experimental protocol.
The standard test procedure is initiated by addition of the test compound, ^3 H thymidine and serum or a specific growth factor to the serum deprived synchronized cells. Growth factor and serum stimulations are optimized for each cell type. The test compounds are added to each well at 50 fold dilution (20 μL/well) and the plates are incubated for 24-36 hours at 37° C. in 5% CO2 atmosphere. Test compounds are dissolved in 50% ethanol and assayed at 1, 10, and 100 μM. As a control, RG 50872 (Bilder, G. A.; et al., Am. J. Cell Physiol., 1991; 260: C721) is routinely assayed under the conditions of each cell preparation at a concentration of 5 μM.
At the completion of the experiment, the plates are placed on ice, washed three times with ice cold PBS and incubated in ice cold 10% trichloroacetic acid (TCA) for 30 minutes to remove acid soluble proteins. Each solution is transferred to a scintillation vial containing 0.4N HCl (500 μL/vial to neutralize NaOH) and each well is rinsed two times with water (500 μL) for a total volume of 2 mL/vial.
Data is quantitated by subjecting the vials to a scintillation counter, in triplicate, for both control and experimental samples. Control (100%) data is obtained from maximally stimulated cells, as the result of growth factor or serum stimulation. Experimental data is obtained from cells maximally stimulated with growth factor or serum and treated with a test compound. (The platelet-derived growth factor used in the assay was human recombinant PDGF-AB purchased from Upstate Biotechnology Inc., Lake Placid, N.Y.). Data is expressed as a percent of control from which IC50 s are determined.

[2] = cytotoxicity, modified MTT assay (% viable cells); assay type: cell-based, porcine; conditions: pig, smooth muscle cells; fresh medium without serum, 24 h at 37° C.; no drug = 100% viable
Method: To distinguish cytotoxicity from the ability of a compound to prevent proliferation, the test compounds were examined using a commercial modification of the MTT assay. Briefly, cells were grown in 24 well plates to 70-80% confluency. The cells were serum deprived for 24-48 hours prior to initiation of the experimental protocol. To insure that the MTT assay monitored toxicity rather than proliferation, the cells were incubated with […] test compound in fresh medium without serum for 24 hours at 37° C. in a humidified CO2 incubator. Upon completion of the compound treatment, MTT indicator dye was added for 4 hours at 37° C. Cells were then solubilized and aliquots from each well were transferred to a 96-well plate for analysis. Absorbance at 570 nm wavelength with a reference wavelength of 630 nm was recorded using an ELISA plate reader. Results are reported as percent viable using no drug (100% viable) and pre-solubilization (0% viable) standards.

[3] = human recombinant PDGF-AB stimulated, read-out: Porcine Smooth Muscle Cell Antiproliferation IC50 or % Inhibition at x Concentration, PDGF
[4] = serum-stimulated, read-out: Porcine Smooth Muscle Cell Antiproliferation IC50 or % Inhibition at x Concentration, Serum

Q: Which results are given for `N#C/C(=C\c1ccncc1)c1cccnc1` [Example 1, Z-2-(Pyridin-3yl)-3-(pyridin-4-yl)-acrylonitrile]?
A: pIC50 [1, 3]: 6.46; pIC50 [1, 4]: 5.94; viability at 24 h [2]: 100%

Q: With `N#CC(=Cc1ccnc2ccccc12)c1cccnc1` [Example 2, 2-Pyridin-3-yl-3-quinolin-4-yl-acrylonitrile] as the compound, how does the pIC50 [1, 4] read?
A: Its pIC50 is 4.09.

Q: With `N#CC(=Cc1ccc2c(c1)OCCO2)c1cccnc1` [Example 3, 3-(2,3-Dihydro-benzo[1,4]dioxin-6-yl)-2-pyridin-3-yl-acrylonitrile] as the compound, how does the pIC50 [1, 3] read?
A: The pIC50 was 4.98.

Q: What about the pIC50 [1, 4] of the same compound?
A: Its pIC50 is 4.94 to 5.42.

Q: And the viability at 24 h [2]?
A: The viability at 24 h was 86%.

Q: With `N#CC(=Cc1ccccn1)c1cccnc1` [Example 4, 2-Pyridin-3-yl-3-pyridin-2-yl-acrylonitrile] as the compound, how does the pIC50 [1, 4] read?
A: Its pIC50 is 4.32.

Q: And the viability at 24 h [2]?
A: Its viability at 24 h is 92%.

Q: With `N#CC(=Cc1cccnc1)c1cccnc1` [Example 5, 2,3-Di-pyridin-3-yl-acrylonitrile] as the compound, how does the pIC50 [1, 4] read?
A: The pIC50 was 4.02.

Q: With `N#CC(=Cc1c[nH]c2ncccc12)c1cccnc1` [Example 6, 2-(Pyridin-3-yl)-3-(1H-pyrrolo[2,3-b]pyridin-3-yl)-acrylonitrile] as the compound, how does the pIC50 [1, 3] read?
A: The pIC50 was 6.05.

Q: What about the pIC50 [1, 4] of the same compound?
A: The pIC50 was 5.93.

Q: What about the viability at 24 h [2] of the same compound?
A: The viability at 24 h was 100%.

Q: With `N#C/C(=C\c1ccc2c(c1)OCCO2)c1c[nH]c2ncccc12` [Example 7, (Z)-3-(2,3-Dihydro-benzo[1,4]dioxin-6-yl)-2-(1H-pyrrolo-[2,3-b]pyridin-3-yl)-acrylonitrile] as the compound, how does the pIC50 [1, 3] read?
A: The pIC50 was 4.83.

Q: And the pIC50 [1, 4]?
A: Its pIC50 is 5.91.

Q: And the viability at 24 h [2]?
A: Its viability at 24 h is 100%.

Q: With `CCn1c2ccccc2c2cc(/C=C(\C#N)c3cccnc3)ccc21` [Example 8, (Z)-3-(9-Ethyl-9H-carbazol-3-yl)-2-(pyridin-3-yl) acrylonitrile] as the compound, how does the pIC50 [1, 3] read?
A: The pIC50 was 6.47.

Q: What about the pIC50 [1, 4] of the same compound?
A: The pIC50 was 6.45.

Q: What about the viability at 24 h [2] of the same compound?
A: Its viability at 24 h is 100%.

Q: With `N#CC(=Cc1ccc[nH]1)c1cccnc1` [Example 9, 2-(Pyridin-3-yl)-3-(1H-pyrrol-2-yl)-acrylonitrile] as the compound, how does the pIC50 [1, 4] read?
A: The pIC50 was 4.04.

Q: What about the viability at 24 h [2] of the same compound?
A: Its viability at 24 h is 84%.
